Where “and” joins values, the source holds several entries; their conditions need not be identical. Equal entries are not always repeated. Where two headings read alike, the source gives them in different places.
Experiment: Part 2 PK study: 200 mg QD versus 100 mg BID for 10 days under fed conditions
Assay type: in vivo, human
Settings: fed; for AUC: read-out: AUC0-tau; for Tmax: read-out: Tmax; for half-life: read-out: t½ (converted); for concentration at 10 day: read-out: Cmin; for Vd/F: read-out: Vz/F
Procedure: Part 2 involved analysing the PK parameters obtained following either single (QD) or twice daily (BD) dosing of a compound of formula (Ia) under fed conditions.
Subjects were randomized 1:1 to receive a daily dose of 200 mg administered once daily in the morning (200 mg capsule) or twice daily (100 mg capsules BID) for a total of 10 days. PK blood samples were taken on Day 1 pre-dose and at 0.25, 0.5, 1.0, 1.5, 2, 3, 4, 8, 10, 12 and 16 hours post-dose. On Days 2 to 10, PK blood samples were taken once pre-dose, and on Days 11 to 14, at 24, 36, 48, 60, 72 and 96 hours post-dose.
Subjects selected for participation checked into the clinical unit and were randomized to the dosing regimen receiving their first dose of study drug on the morning of Day 1 followed by PK and safety assessments through the morning of Day 2 (24 hours post-dose). Subjects on a BID regimen received their second dose of study drug approximately 12 hours after the first dose. Subjects remained confined in the clinic for dosing BID or QD through the last dose of study drug on the morning of Day 10. PK samples were collected through 96 hrs post-dose. Subjects were discharged from the clinic following collection of the 72 hr PK sample, returning to the clinic on the morning of Day 14 for the 96 hr sample collection.
For both Parts 1 and 2, samples were processed and analysed as follows. The method extracted Q-122 and the Internal Standard (IS, Q-122 ^13C4) from human plasma using protein precipitation extraction.
The analytes were separated by HPLC on a Phenomenex Synergi Polar-RP column, and the eluates monitored by an API4000 MS/MS detector in positive MRM mode. The extract was then assayed against a calibration curve. The data were acquired and processed by the data acquisition system Analyst® (Sciex) linked directly to the API4000 MS/MS detector and then processed in Watson LIMS™ (Thermo Scientific), where applicable. The method range is from 10.0 to 2500 ng/mL using 50 μL of matrix and has a run time of approximately 3.2 minutes per sample.
Plasma PK parameters for each dosing regimen and dose level were calculated from the concentrations of Q-122 and its major metabolites measured in pre-dose and post-dose plasma samples. For each dose level, descriptive statistics (sample size, arithmetic means, geometric means, standard deviation, % coefficient of variation, minimum, median, and maximum) are presented.
The pharmacokinetic results were processed according to standard non-compartmental analytical procedures. The software used was Phoenix™ WinNonlin® v 6.4 (Pharsight Corporation, USA) and Microsoft® Excel® 2010 (Microsoft Corporation). The following PK parameters were estimated from plasma data.

[1] = 200 mg QD, Day 10, individual subjects
[2] = human, plasma, oral, 100 mg, 100 mg BID, Day 1, individual subjects
[3] = human, plasma, oral, 100 mg, 100 mg BID, Day 1, mean
[4] = human, plasma, oral, 100 mg, 100 mg BID, Day 1, median
[5] = human, plasma, oral, 100 mg, 100 mg BID, Day 10, individual subjects
[6] = human, plasma, oral, 100 mg, 100 mg BID, Day 10, mean
[7] = human, plasma, oral, 100 mg, 100 mg BID, Day 10, median
[8] = human, plasma, oral, 200 mg, 200 mg QD, Day 1, mean
[9] = human, plasma, oral, 200 mg, 200 mg QD, Day 1, median
[10] = human, plasma, oral, 200 mg, 200 mg QD, Day 10, mean
[11] = human, plasma, oral, 200 mg, 200 mg QD, Day 10, median

c1cnc(NCc2ccc(CNc3ncccn3)cc2)nc1 [Q-122]
% AUCexp [1]: 2.32% and 3.36% and 2.33% and 7.19% and 10.70% and 1.77% | AUC0-last [1]: 12003 ng·h/mL and 11557 ng·h/mL and 9531 ng·h/mL and 14024 ng·h/mL and 6077 ng·h/mL and 10643 ng·h/mL | AUC0-tau [1]: 10424 ng·h/mL and 9904 ng·h/mL and 8868 ng·h/mL and 11036 ng·h/mL and 3134 ng·h/mL and 9758 ng·h/mL | AUCinf [1]: 12287 ng·h/mL and 11959 ng·h/mL and 9759 ng·h/mL and 15111 ng·h/mL and 6805 ng·h/mL and 10834 ng·h/mL | Accum Index [1]: 1.44 and 1.78 and 1.34 and 2.88 and 2.25 and 1.22 | CLss/F [1]: 19.19 L/h and 20.19 L/h and 22.55 L/h and 18.12 L/h and 63.82 L/h and 20.50 L/h | Cavg [1]: 434.33 ng/mL and 412.65 ng/mL and 369.52 ng/mL and 459.84 ng/mL and 130.57 ng/mL and 406.57 ng/mL | Cmax [1]: 1450.00 ng/mL and 1730.00 ng/mL and 1430.00 ng/mL and 1320.00 ng/mL and 245.00 ng/mL and 1470.00 ng/mL | Cmin [1]: 74.10 ng/mL and 73.50 ng/mL and 52.20 ng/mL and 93.90 ng/mL and 68.20 ng/mL and 77.70 ng/mL | Fluct [1]: 316.79% and 401.43% and 372.87% and 266.63% and 135.41% and 342.45% | Tlast [1]: 60.00 h and 72.00 h and 48.00 h (2×) and 96.00 h (2×) | t½ [1]: 13.99 h and 20.21 h and 12.03 h and 39.04 h and 28.35 h and 9.63 h | % AUCexp (200 mg QD, Day 10, max): 10.70% | AUC0-last (200 mg QD, Day 10, max): 14024 ng·h/mL | AUC0-tau (200 mg QD, Day 10, max): 11036 ng·h/mL | AUCinf (200 mg QD, Day 10, max): 15111 ng·h/mL | Accum Index (200 mg QD, Day 10, max): 2.88 | CLss/F (200 mg QD, Day 10, max): 63.82 L/h | Cavg (200 mg QD, Day 10, max): 459.84 ng/mL | Cmax (200 mg QD, Day 10, max): 1730.00 ng/mL | Cmin (200 mg QD, Day 10, max): 93.90 ng/mL | Fluct (200 mg QD, Day 10, max): 401.43% | Tlast (200 mg QD, Day 10, max): 96.00 h | t½ (200 mg QD, Day 10, max): 39.04 h | % AUCexp (200 mg QD, Day 10, mean): 4.612% | CLss/F (200 mg QD, Day 10, mean): 27.396 L/h | Cavg (200 mg QD, Day 10, mean): 368.913 ng/mL | Cmin (200 mg QD, Day 10, mean): 73.267 ng/mL | Fluct (200 mg QD, Day 10, mean): 305.929% | Tlast (200 mg QD, Day 10, mean): 70.000 h | % AUCexp (200 mg QD, Day 10, median): 2.85% | Accum Index (200 mg QD, Day 10, median): 1.61 | CLss/F (200 mg QD, Day 10, median): 20.35 L/h | Cavg (200 mg QD, Day 10, median): 409.61 ng/mL | Cmin (200 mg QD, Day 10, median): 73.80 ng/mL | Fluct (200 mg QD, Day 10, median): 329.62% | Tlast (200 mg QD, Day 10, median): 66.00 h | % AUCexp (200 mg QD, Day 10, min): 1.77% | AUC0-last (200 mg QD, Day 10, min): 6077 ng·h/mL | AUC0-tau (200 mg QD, Day 10, min): 3134 ng·h/mL | AUCinf (200 mg QD, Day 10, min): 6805 ng·h/mL | Accum Index (200 mg QD, Day 10, min): 1.22 | CLss/F (200 mg QD, Day 10, min): 18.12 L/h | Cavg (200 mg QD, Day 10, min): 130.57 ng/mL | Cmax (200 mg QD, Day 10, min): 245.00 ng/mL | Cmin (200 mg QD, Day 10, min): 52.20 ng/mL | Fluct (200 mg QD, Day 10, min): 135.41% | Tlast (200 mg QD, Day 10, min): 48.00 h | t½ (200 mg QD, Day 10, min): 9.63 h | AUC(0-t) [2]: 8170 ng·h/mL | AUC [2]: 2800 ng·h/mL | AUC(0-t) [3]: 6630 ng·h/mL | AUC [3]: 3590 ng·h/mL | Cmax (human, plasma, oral, 100 mg, 100 mg BID, Day 1, mean, read-out: Cmax): 730 ng/mL | Tmax [3]: 2.25 h | half-life [3]: 5.49 h | AUC(0-t) [4]: 6640 ng·h/mL | AUC [4]: 3690 ng·h/mL | Cmax (human, plasma, oral, 100 mg, 100 mg BID, Day 1, median, read-out: Cmax): 809 ng/mL | Tmax [4]: 2 h | half-life [4]: 5.1 h | AUC(0-inf) [5]: 9020 ng·h/mL | AUC(0-t) [5]: 8810 ng·h/mL | AUC [5]: 7000 ng·h/mL | Cmax (human, plasma, oral, 100 mg, 100 mg BID, Day 10, individual subjects, read-out: Cmax): 1300 ng/mL | Tmax [5]: 2 h | AUC(0-inf) [6]: 7270 ng·h/mL | AUC(0-t) [6]: 6950 ng·h/mL | AUC [6]: 5440 ng·h/mL | Cmax (human, plasma, oral, 100 mg, 100 mg BID, Day 10, mean, read-out: Cmax): 1020 ng/mL | concentration at 10 day [6]: 146 ng/mL | Tmax [6]: 1.75 h | Vd/F [6]: 370 L | half-life [6]: 11.8 h | AUC(0-inf) [7]: 7310 ng·h/mL | AUC(0-t) [7]: 7040 ng·h/mL | AUC [7]: 5760 ng·h/mL | Cmax (human, plasma, oral, 100 mg, 100 mg BID, Day 10, median, read-out: Cmax): 1060 ng/mL | Tmax [7]: 2 h | Vd/F [7]: 210 L | half-life [7]: 8.2 h | Tmax (human, plasma, oral, 200 mg, 200 mg QD, Day 1, individual subjects): 3 h | AUC(0-t) [8]: 8060 ng·h/mL | AUC [8]: 8060 ng·h/mL | Cmax (human, plasma, oral, 200 mg, 200 mg QD, Day 1, mean, read-out: Cmax): 1350 ng/mL | Tmax [8]: 3.17 h | half-life [8]: 8.64 h | AUC(0-t) [9]: 7790 ng·h/mL | AUC [9]: 7790 ng·h/mL | Cmax (human, plasma, oral, 200 mg, 200 mg QD, Day 1, median, read-out: Cmax): 1560 ng/mL | Tmax [9]: 3 h | half-life [9]: 7.7 h | Tmax (human, plasma, oral, 200 mg, 200 mg QD, Day 10, individual subjects): 4 h | AUC(0-inf) [10]: 11100 ng·h/mL | AUC(0-t) [10]: 10600 ng·h/mL | AUC [10]: 8850 ng·h/mL | Cmax (human, plasma, oral, 200 mg, 200 mg QD, Day 10, mean, read-out: Cmax): 1270 ng/mL | concentration at 10 day [10]: 73 ng/mL | Tmax [10]: 3.33 h | Vd/F [10]: 881 L | half-life [10]: 20.5 h | AUC(0-inf) [11]: 11400 ng·h/mL | AUC(0-t) [11]: 11100 ng·h/mL | AUC [11]: 9830 ng·h/mL | Cmax (human, plasma, oral, 200 mg, 200 mg QD, Day 10, median, read-out: Cmax): 1440 ng/mL | Tmax [11]: 3.5 h | Vd/F [11]: 490 L | half-life [11]: 17.1 h

Reference: patent US20220133722A1, “PHARMACEUTICAL COMPOSITIONS” (QUE ONCOLOGY PTY LTD, priority 2019, published 2022)
